According to patent US10221173B2, “Chemical compounds” (AstraZeneca AB, priority 2017, dated 2019):
pIC50: −log10 of the molar value. Values after ≈ are worked out from the molar mass of the structure shown.

How the values were obtained:
[1] = Thermodynamic solubility (shake-flask); type: physicochemical; conditions: thermodynamic from solid, phosphate buffer pH 7.4, 24 hours
[2] = Log D (shake flask, 1-octanol/aqueous buffer); type: physicochemical
[3] = target: recombinant human Estrogen Receptor alpha ligand binding domain (ER alpha-LBD (GST)) (Homo sapiens (Human), UniProt P03372); experiment: ERα binding assay (LanthaScreen TR-FRET competition)
hERG potassium channel = hERG potassium channel (Homo sapiens (Human), UniProt Q12809)
[4] = Human plasma protein binding (equilibrium dialysis); type: in vitro ADME
Experimental: The automated equilibrium dialysis assay in human plasma uses the RED (Rapid Equilibrium Dialysis) Device and sample handling. The assay generally runs over two to three days including delivery of results. After dialysis for 18 hours, plasma and buffer samples are prepared for analysis by liquid chromatography and mass spectrometry. Samples are generally tested in singlicates and quantified by LC/MSMS by using a 7-point calibration curve in plasma. The compounds are pooled together in plasma pools up to 10 compounds. Three reference compounds are used in each run, Propranolol, Metoprolol and Warfarin. Warfarin is used as a control in each pool and Propranolol and Metoprolol are placed randomly in each run. An in-house Excel macro is used for preparation of files for the robot and the mass spectrometer and is also used for the calculations of fraction unbound (fu %) in plasma.

[5] = target: Estrogen Receptor (ERα) in MCF-7 cells (Homo sapiens (Human), UniProt P03372); experiment: MCF-7 ER down-regulation assay (immuno-fluorescence); type: cell-based; conditions: for % downregulation (in brackets): maximum downregulation
[6] = aqueous phosphate buffer, 25 °C, pH 7.4, aqueous buffer
[7] = 1-octanol/aqueous buffer, pH 7.4, pH 7.4

Estrogen Receptor (ERα) in MCF-7 cells, sequence (P03372 whole entry): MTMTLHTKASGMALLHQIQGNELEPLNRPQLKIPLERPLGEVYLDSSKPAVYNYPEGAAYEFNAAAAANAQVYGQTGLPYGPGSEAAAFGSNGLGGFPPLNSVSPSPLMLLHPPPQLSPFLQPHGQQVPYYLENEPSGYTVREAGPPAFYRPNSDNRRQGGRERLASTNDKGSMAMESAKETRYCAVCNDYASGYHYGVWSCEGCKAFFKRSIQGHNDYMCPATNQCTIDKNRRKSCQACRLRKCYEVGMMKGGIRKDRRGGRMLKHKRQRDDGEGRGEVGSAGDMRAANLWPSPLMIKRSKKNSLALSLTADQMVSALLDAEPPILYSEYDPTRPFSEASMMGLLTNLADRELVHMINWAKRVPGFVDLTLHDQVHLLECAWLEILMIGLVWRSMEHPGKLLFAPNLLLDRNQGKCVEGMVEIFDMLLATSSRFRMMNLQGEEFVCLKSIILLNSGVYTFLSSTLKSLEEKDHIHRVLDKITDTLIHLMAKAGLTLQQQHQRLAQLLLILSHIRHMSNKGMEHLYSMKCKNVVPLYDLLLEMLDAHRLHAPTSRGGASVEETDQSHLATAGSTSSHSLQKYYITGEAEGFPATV
recombinant human Estrogen Receptor alpha ligand binding domain (ER alpha-LBD (GST)), sequence (P03372 307-554): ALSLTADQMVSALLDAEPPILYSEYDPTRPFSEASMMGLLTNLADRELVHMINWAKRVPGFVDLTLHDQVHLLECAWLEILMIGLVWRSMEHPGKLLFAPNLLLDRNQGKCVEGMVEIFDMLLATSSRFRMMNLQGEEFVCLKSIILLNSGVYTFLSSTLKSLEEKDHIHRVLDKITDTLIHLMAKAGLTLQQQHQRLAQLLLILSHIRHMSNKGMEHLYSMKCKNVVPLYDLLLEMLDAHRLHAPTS
hERG potassium channel, sequence (Q12809 whole entry): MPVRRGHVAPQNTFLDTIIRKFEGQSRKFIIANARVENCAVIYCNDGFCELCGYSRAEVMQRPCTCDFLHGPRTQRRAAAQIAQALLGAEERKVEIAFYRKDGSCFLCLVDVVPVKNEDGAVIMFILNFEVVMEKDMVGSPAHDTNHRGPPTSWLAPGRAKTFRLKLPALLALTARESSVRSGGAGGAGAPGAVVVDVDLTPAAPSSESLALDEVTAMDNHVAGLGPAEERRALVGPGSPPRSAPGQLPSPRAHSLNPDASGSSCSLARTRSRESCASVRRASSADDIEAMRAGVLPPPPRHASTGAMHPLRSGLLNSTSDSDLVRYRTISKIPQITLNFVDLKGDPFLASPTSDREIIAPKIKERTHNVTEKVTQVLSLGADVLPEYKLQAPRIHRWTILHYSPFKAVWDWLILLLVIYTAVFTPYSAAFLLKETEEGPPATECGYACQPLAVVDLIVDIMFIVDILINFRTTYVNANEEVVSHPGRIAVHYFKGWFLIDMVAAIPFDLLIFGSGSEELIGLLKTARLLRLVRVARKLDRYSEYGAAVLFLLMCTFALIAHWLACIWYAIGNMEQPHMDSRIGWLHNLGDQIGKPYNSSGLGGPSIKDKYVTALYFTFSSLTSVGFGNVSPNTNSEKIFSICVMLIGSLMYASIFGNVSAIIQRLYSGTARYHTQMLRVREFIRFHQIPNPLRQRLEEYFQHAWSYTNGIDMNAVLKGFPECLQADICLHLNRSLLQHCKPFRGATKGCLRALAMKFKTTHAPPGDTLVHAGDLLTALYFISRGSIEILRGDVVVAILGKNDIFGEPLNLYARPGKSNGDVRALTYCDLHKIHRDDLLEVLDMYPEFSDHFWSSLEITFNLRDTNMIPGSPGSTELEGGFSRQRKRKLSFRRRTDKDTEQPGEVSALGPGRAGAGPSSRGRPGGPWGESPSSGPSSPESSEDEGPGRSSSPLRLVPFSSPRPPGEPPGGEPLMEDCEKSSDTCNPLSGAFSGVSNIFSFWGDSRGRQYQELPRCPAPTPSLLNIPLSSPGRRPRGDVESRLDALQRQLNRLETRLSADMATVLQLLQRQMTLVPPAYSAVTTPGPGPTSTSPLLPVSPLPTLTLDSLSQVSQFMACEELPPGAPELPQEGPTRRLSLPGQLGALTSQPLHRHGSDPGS

## Cc1c(NCCNCCCF)ccnc1[C@@H]1c2[nH]c3ccccc3c2C[C@@H](C)N1CC(F)(F)F [Example 95, N1-(3-fluoropropyl)-N2-(3-methyl-2-((1S,3R)-3-methyl-2-(2,2,2-trifluoroethyl)-2,3,4,9-tetrahydro-1H-pyrido[3,4-b]indol-1-yl)pyridin-4-yl)ethane-1,2-diamine]
[1]; [6]
  solubility at 24 h: 869 µM (≈ 415 µg/mL)
[2]; [7]
  logD: 2.5
[3]
  pIC50: 8.25
hERG potassium channel
  pIC50: 5.14
[4]
  Human plasma protein binding (% free): 4.6 % free
[5]
  pIC50: 8.48

## C[C@@H]1Cc2c([nH]c3ccccc23)[C@@H](c2cccc(OCCNCCCF)n2)N1CC(F)(F)F [Example 34, 3-fluoro-N-(2-((6-((1S,3R)-3-methyl-2-(2,2,2-trifluoroethyl)-2,3,4,9-tetrahydro-1H-pyrido[3,4-b]indol-1-yl)pyridin-2-yl)oxy)ethyl)propan-1-amine]
[1]; [6]
  solubility at 24 h: 151 µM (≈ 70.1 µg/mL)
[2]; [7]
  logD: 3.7
[3]
  pIC50: 6.72
hERG potassium channel
  pIC50: 5.47
[4]
  Human plasma protein binding (% free): 2.2 % free
[5]
  % downregulation (in brackets): — (41%)

## C[C@@H]1Cc2c([nH]c3ccccc23)[C@@H](c2cccc(OCCNCCCF)c2Cl)N1CC(F)(F)F [Example 25, N-(2-(2-chloro-3-((1R,3R)-3-methyl-2-(2,2,2-trifluoroethyl)-2,3,4,9-tetrahydro-1H-pyrido[3,4-b]indol-1-yl)phenoxy)ethyl)-3-fluoropropan-1-amine]
[1]; [6]
  solubility at 24 h: 19 µM (≈ 9.46 µg/mL)
[2]; [7]
  logD: 4.3
[3]
  pIC50: 9.06
hERG potassium channel
  pIC50: 5.28
[4]
  Human plasma protein binding (% free): 0.080 % free
[5]
  pIC50: 9.60

## C[C@@H]1Cc2c([nH]c3ccccc23)[C@@H](c2c(F)ccc(OCCNCCCF)c2F)N1CC1(S(C)(=O)=O)CC1 [Example 77, N-(2-(2,4-difluoro-3-((1R,3R)-3-methyl-2-((1-(methylsulfonyl)cyclopropyl)methyl)-2,3,4,9-tetrahydro-1H-pyrido[3,4-b]indol-1-yl)phenoxy)ethyl)-3-fluoropropan-1-amine]
[1]; [6]
  solubility at 24 h: 410 µM (≈ 225 µg/mL)
[2]; [7]
  logD: 2.4
[3]
  pIC50: 8.14
hERG potassium channel
  pIC50: 5.27
[4]
  Human plasma protein binding (% free): 5.5 % free
[5]
  pIC50: 8.21

## COc1ncc(OCCNCCCF)cc1[C@@H]1c2[nH]c3ccccc3c2C[C@@H](C)N1CC(F)(F)F [Example 36, 3-fluoro-N-(2-((6-methoxy-5-((1R,3R)-3-methyl-2-(2,2,2-trifluoroethyl)-2,3,4,9-tetrahydro-1H-pyrido[3,4-b]indol-1-yl)pyridin-3-yl)oxy)ethyl)propan-1-amine]
[1]; [6]
  solubility at 24 h: 183 µM (≈ 90.5 µg/mL)
[2]; [7]
  logD: 3.5
[3]
  pIC50: 8.59
hERG potassium channel
  pIC50: 5.06
[4]
  Human plasma protein binding (% free): 2 % free
[5]
  pIC50: 9.46

## Cc1ccc(OCCNCCCF)nc1[C@@H]1c2[nH]c3ccccc3c2C[C@@H](C)N1CC(F)(F)F [Example 105, 3-fluoro-N-(2-((5-methyl-6-((1S,3R)-3-methyl-2-(2,2,2-trifluoroethyl)-2,3,4,9-tetrahydro-1H-pyrido[3,4-b]indol-1-yl)pyridin-2-yl)oxy)ethyl)propan-1-amine]
[1]; [6]
  solubility at 24 h: 136 µM (≈ 65.1 µg/mL)
[2]; [7]
  logD: 3.4
[3]
  pIC50: 7.38
hERG potassium channel
  pIC50: 5.46
[4]
  Human plasma protein binding (% free): 1 % free
[5]
  pIC50: 7.41

## Cc1ncc(OCCNCCCF)cc1[C@@H]1c2[nH]c3ccccc3c2C[C@@H](C)N1CC(F)(F)F [Example 37, 3-fluoro-N-(2-((6-methyl-5-((1R,3R)-3-methyl-2-(2,2,2-trifluoroethyl)-2,3,4,9-tetrahydro-1H-pyrido[3,4-b]indol-1-yl)pyridin-3-yl)oxy)ethyl)propan-1-amine]
[1]; [6]
  solubility at 24 h: 434 µM (≈ 208 µg/mL)
[2]; [7]
  logD: 3.6
[3]
  pIC50: 7.92
hERG potassium channel
  pIC50: 5.46
[4]
  Human plasma protein binding (% free): 2.3 % free
[5]
  pIC50: 7.46

## COc1c(F)cc(OCCNCCCF)cc1[C@@H]1c2[nH]c3ccccc3c2C[C@@H](C)N1CC(F)(F)F [Example 27, 3-fluoro-N-(2-(3-fluoro-4-methoxy-5-((1R,3R)-3-methyl-2-(2,2,2-trifluoroethyl)-2,3,4,9-tetrahydro-1H-pyrido[3,4-b]indol-1-yl)phenoxy)ethyl)propan-1-amine]
[1]; [6]
  solubility at 24 h: 6 µM (≈ 3.07 µg/mL)
[2]; [7]
  logD: 4.2
[3]
  pIC50: 8.57
hERG potassium channel
  pIC50: 5.32
[4]
  Human plasma protein binding (% free): 0.42 % free
[5]
  pIC50: 8.80

## COc1ncc(NCCNCCCF)cc1[C@@H]1c2[nH]c3ccccc3c2C[C@@H](C)N1CC(F)(F)F [Example 41, N1-(3-fluoropropyl)-N2-(6-methoxy-5-((1R,3R)-3-methyl-2-(2,2,2-trifluoroethyl)-2,3,4,9-tetrahydro-1H-pyrido[3,4-b]indol-1-yl)pyridin-3-yl)ethane-1,2-diamine]
[1]; [6]
  solubility at 24 h: 242 µM (≈ 119 µg/mL)
[2]; [7]
  logD: 2.9
[3]
  pIC50: 7.92
hERG potassium channel
  pIC50: 5.31
[4]
  Human plasma protein binding (% free): 1.8 % free
[5]
  pIC50: 8.22

## C[C@@H]1Cc2c([nH]c3ccccc23)[C@@H](c2c(F)c(F)cc(OCCNCCCF)c2F)N1CC(F)(F)F [Example 32, 3-fluoro-N-(2-(2,4,5-trifluoro-3-((1R,3R)-3-methyl-2-(2,2,2-trifluoroethyl)-2,3,4,9-tetrahydro-1H-pyrido[3,4-b]indol-1-yl)phenoxy)ethyl)propan-1-amine]
[1]; [6]
  solubility at 24 h: 55 µM (≈ 28.5 µg/mL)
[2]; [7]
  logD: 4.1
[3]
  pIC50: 8.57
hERG potassium channel
  pIC50: 5.24
[4]
  Human plasma protein binding (% free): 0.52 % free
[5]
  pIC50: 9.42

## C[C@@H]1Cc2c([nH]c3ccccc23)[C@@H](c2c(Cl)ccc(OCCNCCCF)c2F)N1C[C@H](C)C(=O)O [Example 54, (S)-3-((1R,3R)-1-(6-chloro-2-fluoro-3-(2-((3-fluoropropyl)amino)ethoxy)phenyl)-3-methyl-1,3,4,9-tetrahydro-2H-pyrido[3,4-b]indol-2-yl)-2-methylpropanoic acid]
[1]; [6]
  solubility at 24 h: > 1000 µM
[2]; [7]
  logD: 0.9
[3]
  pIC50: 8.23
hERG potassium channel
  pIC50: < 4.40
[4]
  Human plasma protein binding (% free): 18 % free
[5]
  pIC50: 9.00

## COCc1ccc(OCCNCCCF)cc1[C@@H]1c2[nH]c3ccccc3c2C[C@@H](C)N1CC(F)(F)F [Example 71, 3-fluoro-N-(2-(4-(methoxymethyl)-3-((1R,3R)-3-methyl-2-(2,2,2-trifluoroethyl)-2,3,4,9-tetrahydro-1H-pyrido[3,4-b]indol-1-yl)phenoxy)ethyl)propan-1-amine]
[1]; aqueous buffer, 25° C.
  solubility at 24 h: < 1.6 µM
[2]; pH 7.4
  logD: 3.8
[3]
  pIC50: 8.47
hERG potassium channel
  pIC50: 5.24
[4]
  Human plasma protein binding (% free): 0.44 % free
[5]
  pIC50: 8.70
  % downregulation (in brackets): 90%

## C[C@@H]1Cc2c([nH]c3ccc(F)cc23)[C@@H](c2c(F)cnc(OCCN(C)CCCF)c2F)N1CC(F)(F)CO [Example 67, 3-((1R,3R)-1-(3,5-difluoro-2-(2-((3-fluoropropyl)(methyl)amino)ethoxy)pyridin-4-yl)-6-fluoro-3-methyl-1,3,4,9-tetrahydro-2H-pyrido[3,4-b]indol-2-yl)-2,2-difluoropropan-1-ol]
[1]; [6]
  solubility at 24 h: 80.6 µM (≈ 43.9 µg/mL)
[2]; [7]
  logD: 4
[3]
  pIC50: 9.15
hERG potassium channel
  pIC50: 5.24
[4]
  Human plasma protein binding (% free): 1.6 % free
[5]
  pIC50: 10.00
